We go through five molecules from publication PMC6692898 (Chemical research in toxicology, 2019).

Data set [1] is described as follows: 1-Naphthaldehyde decay/depletion in human liver microsomes and Supersomes. It is filed as in vitro ADME. A general note: Liver microsomes are vesicles of endoplasmic reticulum, rich in cytochrome P450 enzymes.
Data set [2] is described as follows: Time-course decay of TBF-A in HLM, control Supersomes and isozyme Supersomes. The class given is in vitro ADME, human.
Another data set has as its target CYP2C19 (Homo sapiens, UniProt P33261). The data set can be described thus: Steady-state kinetics by recombinant CYP2C19 Supersomes. The class given is in vitro ADME.
For data set [3] the following is noted: cited from earlier work.
Substrate in data set [4]: CN(C/C=C/C#CC(C)(C)C)Cc1cccc2ccccc12
In words: cells, lysate or membranes named. The following applies: CYP2C19, pH 7.4.

Setting [5] is: 50 μM TBF-A, normalized per mg/protein.
Where [6] appears, read: step 2.2a, metabolite 1-naphthyl-methylamine, CYP2C19.
[7] abbreviates: step 2.2b, metabolite 1-naphthaldehyde, CYP2C19.

Where two headings read alike, the source gives them in different places.

As to `O=Cc1cccc2ccccc12` [1-naphthaldehyde], the “effect of microsomes and NADPH on decay or disappearance” value in data set [1] (50 μM 1-naphthaldehyde, active or heat-inactivated human liver microsomes, presence or absence of NADPH) is listed as “not significantly affected”. For the same molecule, the “depletion in Supersomes compared with human liver microsomes” value in data set [1] (10 and 50 μM 1-naphthaldehyde, NADPH, CYP2C19 and 3A4 Supersomes, after 30 min) was “more significant decrease”.

On to `CC(C)(C)C#CC=CC=O` [TBF-A, 6,6-dimethyl-2-hepten-4-ynal], for which, in data set [2] (50 μM TBF-A decay), the “end-point plateau for CYP3A4 higher than that of HLM” value is given as around 4 fold; the “end-point plateau of CYP2C19 higher than for both HLM and control Supersomes” value is given as “roughly 2 fold”. Also, in data set [2] (setting [5]), the “decay faster in HLM compared to CYP2C19 Supersomes” value is given as 13% and the “decay faster in HLM compared to CYP3A4 Supersomes” value is recorded as 55%.

A word on the Km: it is the substrate concentration at which the rate is half of its maximum. Regarding `CC(C)(C)C#C/C=C/CNCc1cccc2ccccc12` [desmethyl-terbinafine], at CYP2C19 (CYP2C19), the “Km higher than the value for terbinafine N-denaphthylation (Pathway 3)” value is listed as “about 5 fold” and the “decrease in N-denaphthylation catalytic efficiency from terbinafine to desmethyl-terbinafine” value is around 15 fold. The “higher rate of turnover (Vmax) than for the parent drug” value on CYP2C19 (N-denaphthylation by CYP2C19) is listed as “about 3 fold”. Moreover, on CYP2C19 (Pathway 2.2a), the “efficiency of 1-naphthyl methylamine formation by CYP2C19 relative to 3A4” value is “about 3 fold”. Besides, on CYP2C19 (formation of the desmethyl-terbinafine dihydrodiols, loss of the methyl group), the “higher Vmax for CYP2C19” value is listed as “approximately 10 fold”. At CYP2C19 (read-out: Km (affinity), CYP2C19, oxidative nondealkylation reactions), the Km is below 100 µM. At CYP2C19 (setting [6]), the Km came to 220 ± 55 µM, the V/K was determined as 3.7 and the Vmax is recorded as 810 ± 92 pmol/min/nmol of protein. Also, on CYP2C19 (setting [7]), the Km came to 150 ± 58 µM, the V/K was 8.7 and the Vmax was 1300 ± 59 pmol/min/nmol of protein.

Take `CN(C/C=C/C#CC(C)(C)C)Cc1cccc2ccccc12` [terbinafine]: the Km at 30 min on CYP2C19 (human, recombinant CYP2C19 Supersomes, pH 7.4, Km (affinity), CYP2C19, oxidative nondealkylation reactions) is below 100 µM. Moreover, the “time remaining at therapeutic levels in the body after therapy ceases” value in data set [3] (due to bioaccumulation) is on record as “up to a month”. In data set [3] (reported), the plasma levels is 1 µg/mL and the protein binding is given as above 99%.

B1: CYP2C19 (Homo sapiens) (protein)
chain: MDPFVVLVLCLSCLLLLSIWRQSSGRGKLPPGPTPLPVIGNILQIDIKDVSKSLTNLSKIYGPVFTLYFGLERMVVLHGYEVVKEALIDLGEEFSGRGHFPLAERANRGFGIVFSNGKRWKEIRRFSLMTLRNFGMGKRSIEDRVQEEARCLVEELRKTKASPCDPTFILGCAPCNVICSIIFQKRFDYKDQQFLNLMEKLNENIRIVSTPWIQICNNFPTIIDYFPGTHNKLLKNLAFMESDILEKVKEHQESMDINNPRDFIDCFLIKMEKEKQNQQSEFTIENLVITAADLLGAGTETTSTTLRYALLLLLKHPEVTAKVQEEIERVIGRNRSPCMQDRGHMPYTDAVVHEVQRYIDLIPTSLPHAVTCDVKFRNYLIPKGTTILTSLTSVLHDNKEFPNPEMFDPRHFLDEGGNFKKSNYFMPFSAGKRICVGEGLARMELFLFLTFILQNFNLKSLIDPKDLDTTPVVNGFASVPPFYQLCFIPV
Consider B1, for which the Km in data set [4] (other: step 1.1, metabolite N-methyl-1-naphthyl-methylamine) was found to be 120 ± 22 µM; in data set [4] (other: step 2.1, metabolite desmethyl-terbinafine) it was 37 ± 6.7 µM; in data set [4] (other: step 3.1, metabolite 1-naphthaldehyde), 3.0 ± 0.83 µM.
